The species entered for assay [1] is Mus musculus. Briefly: Ability to inhibit depolarizations induced by AMPA in mouse cortical wedge preparations. The assay is classed as functional, organism-based.
Assay [2] in a line: Compound was evaluated for inhibition of binding of [3H]glycine to specific binding at glycine receptor in rat cortical membrane at 100 uM. The assay is classed as cell membranes.
In assay [3] the target is Glutamate receptor ionotropic, kainate (Rattus norvegicus) (UniProt P22756+Q01812+P42260+P42264+Q63273). In words: Compound was evaluated for inhibition of binding of [3H]KA to specific binding at Ka receptor in rat cortical membrane at 100 uM. Type of assay: cell membranes.
The species entered for assay [4] is Mus musculus. Briefly: Ability to inhibit depolarizations induced by NMDA in mouse cortical wedge preparations. The assay is classed as functional, organism-based.
Assay [5] can be described thus: Compound was evaluated for inhibition of binding of [3H]glycine to specific binding at glycine receptor in rat cortical membrane. The assay is classed as cell membranes.
Assay [6] concerns the target Glutamate receptor ionotropic, kainate. Briefly: Compound was evaluated for inhibition of binding of [3H]KA to specific binding at Ka receptor in rat cortical membrane. Type of assay: cell membranes.
Assay [7] deals with Glutamate receptor ionotropic, AMPA (Rattus norvegicus, UniProt P19490+P19491+P19492+P19493). In words: Compound was evaluated for inhibition of binding of [3H]AMPA to specific binding at Ionotropic glutamate receptor AMPA in rat cortical membrane. The assay is classed as cell membranes.

In ChEMBL document CHEMBL1133689, “7-Chloro-4,5-dihydro-8-(1,2,4-triazol-4-yl)-4-oxo-1,2,4-triazolo[1, 5-a]quinoxaline-2-carboxylates as novel highly selective AMPA receptor antagonists” (J Med Chem, 2000) one finds IC50, inhibition and Ki data, which are given here for eight molecules.

One may read the IC50 as the point on the concentration scale where inhibition reaches its midpoint. As usually defined, the inhibition is the relative decrease from the control value, in per cent. Higher therefore signals strong suppression. The Ki is the dissociation constant of the complex between target and ligand, obtained from inhibition or displacement. Low values mean tighter binding, high ones weaker binding.

Consider `NS(=O)(=O)c1cccc2c1c([N+](=O)[O-])cc1nc(O)c(O)nc12` [NBQX], for which the IC50 in the assay listed under Mus musculus [1] is 0.2 µM. The inhibition in assay [2] amounted to 3%.
For the molecule `O=C(O)c1nc2c(O)nc3cc(Cl)c([N+](=O)[O-])cc3n2n1`, the IC50 in the assay listed under Mus musculus [1] and in the assay filed under Mus musculus [4] was 75 µM in each case. In addition, the inhibition in assay [3] amounted to 41%. In assay [5], this molecule displayed a Ki of 2.2 µM.
`O=C(O)c1nc2c(O)nc3cc(Cl)c(-n4cnnc4)cc3n2n1` [TQX-173]: the IC50 worked out at 2.3 µM in the assay filed under Mus musculus [1], 11.6 µM in assay [6] and 46 µM in the assay listed under Mus musculus [4]. For the same molecule, the Ki is 33.5 µM in assay [5] and 0.14 µM in assay [7].
Turning to `O=C(O)c1nc2c(=O)[nH]c3cc(Cl)c(-n4ccnc4)cc3n2n1`, the IC50 in assay [6] came out at 16.8 µM. The molecule also yielded a Ki in assay [7] of 0.98 µM.
On to `O=C(O)c1nc2c(O)nc3cc(Cl)c(-n4ccnc4)cc3n2n1`, for which the inhibition in assay [2] is 45%.
As to `CCOC(=O)c1nc2c(O)nc3cc(Cl)c(-n4ccnc4)cc3n2n1`, the results for the 50% inhibitory concentration (IC50) in the assay filed under Mus musculus [1] and in the assay listed under Mus musculus [4] were 22 µM and over 100 µM, respectively. Also, the inhibition in assay [2] is 39%; in assay [3], 24%. The same molecule came in with a Ki in assay [7] of 2.3 µM.
Consider `O=C(O)c1cc(O)c2c(Cl)cc(Cl)cc2n1`, for which the IC50 in the assay filed under Mus musculus [1] was 52 µM; in the assay listed under Mus musculus [4], 4.7 µM. Also, the inhibition in assay [3] was determined as 8%. The molecule further came in with an inhibition constant (Ki) in assay [5] of 0.09 µM.
Regarding `CCOC(=O)c1nc2c(O)nc3cc(Cl)c(-n4cnnc4)cc3n2n1`, the IC50 in the assay listed under Mus musculus [1] turned out to be 15 µM; in the assay filed under Mus musculus [4] it was 100 µM. Further, the figures for the inhibition in assay [2] and in assay [3] were 15% and 42%, respectively. The affinity in assay [7] corresponds to a Ki of 0.7 µM.
